Numbers after ± are expanded uncertainties.
Legend:
[1] = xn = mol fraction of the nth substance listed; settings: 101 kPa, Liquid, x2 = 0
[2] = 101 kPa, Liquid
[3] = refractive index (Na D-line) (dimensionless); settings: 298.15 K; 101.33 kPa; Liquid; Standard Abbe refractometry

| Compound | mass density ([1]; 293.15 K) [kg/m3] | mass density ([1]; 303.15 K) [kg/m3] | mass density ([1]; 313.15 K) [kg/m3] | mass density ([1]; 323.15 K) [kg/m3] | mass density ([1]; 333.15 K) [kg/m3] | mass density ([1]; 343.15 K) [kg/m3] | mass density ([1]; 353.15 K) [kg/m3] | mass density ([2]; 293.15 K) [kg/m3] | mass density ([2]; 298.15 K) [kg/m3] | mass density ([2]; 303.15 K) [kg/m3] | mass density ([2]; 313.15 K) [kg/m3] | mass density ([2]; 323.15 K) [kg/m3] | mass density ([2]; 333.15 K) [kg/m3] | mass density ([2]; 343.15 K) [kg/m3] | mass density ([2]; 353.15 K) [kg/m3] | refractive index [3] |
| --- | --- | --- | --- | --- | --- | --- | --- | --- | --- | --- | --- | --- | --- | --- | --- | --- |
| CN1CCCC1=O [N-methylpyrrolidone] + Cc1cccc(C)c1 | 1032.66 ± 0.48 | 1023.42 ± 0.44 | 1014.27 ± 0.4 | 1005.62 ± 0.37 | 996.28 ± 0.36 | 987.39 ± 0.4 | 978.62 ± 0.43 | – | – | – | – | – | – | – | – | – |
| CN1CCCC1=O [N-methylpyrrolidone] + Cc1ccccc1C | 1032.66 ± 0.48 | 1023.42 ± 0.44 | 1014.27 ± 0.4 | 1005.62 ± 0.37 | 996.28 ± 0.36 | 987.39 ± 0.4 | 978.62 ± 0.43 | – | – | – | – | – | – | – | – | – |
| Cc1cccc(C)c1 [1,3-dimethylbenzene] | – | – | – | – | – | – | – | 864.31 ± 1.3 | 859.83 ± 1.3 | 855.64 ± 1.3 | 846.9 ± 1.3 | 838.09 ± 1.3 | 829.22 ± 1.3 | 820.29 ± 1.4 | 811.29 ± 1.4 | 1.4973 ± 0.0008 |
| Cc1ccccc1C [1,2-dimethylbenzene] | – | – | – | – | – | – | – | 879.84 ± 0.64 | 875.73 ± 0.65 | 871.48 ± 0.66 | 863.03 ± 0.69 | 854.51 ± 0.72 | 845.91 ± 0.74 | 837.23 ± 0.77 | 828.47 ± 0.8 | 1.5057 ± 0.0007 |
| Cc1ccc(C)cc1 [1,4-dimethylbenzene] | – | – | – | – | – | – | – | 860.95 ± 0.83 | 856.58 ± 0.84 | 852.3 ± 0.85 | – | 834.76 ± 0.9 | 825.86 ± 1.2 | 816.87 ± 0.95 | 807.81 ± 0.98 | 1.4958 ± 0.0008 |
| CN1CCCC1=O [N-methylpyrrolidone] | – | – | – | – | – | – | – | 1032.66 ± 0.48 | 1028.25 ± 0.46 | 1023.42 ± 0.44 | 1014.27 ± 0.4 | 1005.62 ± 0.37 | 996.28 ± 0.36 | 987.39 ± 0.4 | 978.62 ± 0.43 | 1.4677 ± 0.0007 |
| CN1CCCC1=O [N-methylpyrrolidone] + Cc1ccc(C)cc1 | 1032.66 ± 0.48 | 1023.42 ± 0.44 | 1014.27 ± 0.4 | 1005.62 ± 0.37 | 996.28 ± 0.36 | 987.39 ± 0.4 | 978.62 ± 0.43 | – | – | – | – | – | – | – | – | – |

From the NIST ThermoML archive (doi:10.1016/j.jct.2006.11.003)
